Values of other authors, collected in patent US10351563B2, “Biaryl kinase inhibitors” (BRISTOL-MYERS SQUIBB COMPANY, priority 2014, dated 2019).

Legend:
AAK1 = AAK1 (Homo sapiens (Human), UniProt Q2M2I8)
HCV = conditions: Huh-7.5 cells

Sequence of AAK1 (Q2M2I8 whole entry, species assumed): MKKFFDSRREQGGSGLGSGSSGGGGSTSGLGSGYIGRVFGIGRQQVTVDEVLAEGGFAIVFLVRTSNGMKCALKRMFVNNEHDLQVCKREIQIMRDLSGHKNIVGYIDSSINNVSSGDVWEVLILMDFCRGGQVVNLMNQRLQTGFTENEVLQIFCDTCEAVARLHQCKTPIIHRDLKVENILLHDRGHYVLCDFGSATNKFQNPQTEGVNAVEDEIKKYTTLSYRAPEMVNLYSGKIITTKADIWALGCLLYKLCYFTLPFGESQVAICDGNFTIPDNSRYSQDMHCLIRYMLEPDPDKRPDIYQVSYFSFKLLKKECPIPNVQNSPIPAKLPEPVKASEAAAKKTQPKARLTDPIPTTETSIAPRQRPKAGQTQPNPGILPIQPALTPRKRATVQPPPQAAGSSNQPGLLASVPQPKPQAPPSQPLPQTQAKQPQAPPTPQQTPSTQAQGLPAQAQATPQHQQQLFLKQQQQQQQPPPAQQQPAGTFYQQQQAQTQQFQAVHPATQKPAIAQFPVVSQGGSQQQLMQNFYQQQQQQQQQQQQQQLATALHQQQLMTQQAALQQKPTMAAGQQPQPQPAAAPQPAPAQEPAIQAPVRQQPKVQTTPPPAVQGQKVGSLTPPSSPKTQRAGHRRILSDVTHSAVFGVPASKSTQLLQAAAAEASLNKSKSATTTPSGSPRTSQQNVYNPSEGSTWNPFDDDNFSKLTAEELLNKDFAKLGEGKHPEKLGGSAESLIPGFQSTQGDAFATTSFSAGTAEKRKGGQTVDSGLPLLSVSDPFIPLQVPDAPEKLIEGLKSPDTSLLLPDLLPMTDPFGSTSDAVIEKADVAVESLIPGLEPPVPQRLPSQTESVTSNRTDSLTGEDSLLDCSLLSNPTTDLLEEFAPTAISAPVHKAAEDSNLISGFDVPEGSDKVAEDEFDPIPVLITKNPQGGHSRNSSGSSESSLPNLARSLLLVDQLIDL

Row | SMILES | AAK1 kinase activity inhibition (AAK1) | Neuregulin-1 induced neurite outgrowth (PC12 cells) | HCV entry (HCV) | HCV virion assembly (HCV)
1 | COC(=O)[C@@]1(O)C[C@H]2O[C@]1(C)n1c3ccccc3c3c4c(c5c6ccccc6n2c5c31)C(=O)NC4 [Example K252a, K252a] | inhibits AAK1 kinase activity | potentiation of Neuregulin-1 induced neurite outgrowth |  | 
2 | CCN(CC)CCNC(=O)c1c(C)[nH]c(/C=C2\C(=O)Nc3ccc(F)cc32)c1C [sunitinib] | potent AAK1 inhibitor |  | inhibit HCV entry | reduced HCV virion assembly
